Data reported in patent US8163776B2, “Method of immunomodulation using thione-forming disulfides” (Grassetti family Trust, priority 2001, dated 2012).
Where “and” joins values, the source holds several entries; their conditions need not be identical. Equal values may be shown once.

Tests used:
splenocytes = test: Total splenocyte (lymphocyte) count, trypan blue exclusion; assay type: in vivo, BALB/c mice; details: for Total Lymphocyte Counts: spleen
Description: Splenocytes were isolated by obtaining spleen from the sacrificed mice on the same experimental day, homogenizing the spleen using a 50-M mesh screen, and suspending the homogenate in 25 ml of RPMI 1640. The splenocyte suspension was washed and then spun at 1200 rpm for 5 minutes. The red blood cells were lysed by an osmotic choc with distilled water. The splenocyte suspension was washed and spun at 1200 rpm for 5 minutes. The splenocytes were suspended in complete RPMI media (90% RPMI 1640, 10% FBS, antibiotics 1×, HEPES 1 mM) and the suspension was filtered through cotton wool. Cells were counted using trypan blue exclusion method. Total splenocyte count was recorded (Table 7). Cells were kept on ice and diluted to the appropriate concentration for the corresponding experimental procedures.
To count splenocytes, two chambers of the hemacytometer were counted and the mean was calculated. The total splenocyte count was calculated by the following formula: Total splenocyte count=mean count×10 (dilution factor)×10^4×suspension volume. The mean was calculated for each control and treated group. Student's T test was performed between the control group and the treated group. The p value was calculated for statistical significance. Following spleen homogenization, the total number of splenocytes isolated was counted using a standard trypan blue method which discriminates between viable and non viable cells.

lymphocytes = test: Mitogenic proliferation of splenocytes (3H-thymidine incorporation); assay type: in vivo, BALB/c mice
Description: Splenocytes were diluted to a concentration of 1×10^6 cells/ml in complete RPMI media. Aliquots of 100 μl were transferred into a 96 well flat bottom plate. Mitogen stock solutions were prepared at a concentration of 1 mg/ml in D-PBS and frozen at −20° C. Working solution were prepared freshly in complete RPMI media at the following concentration (10×): 500 μg/ml PHA, 50 μg/ml concanavalin A (con A), and 50 μg/ml LPS. Aliquots of 100 μl of each mitogens were transferred in triplicate in the corresponding wells. Final concentration (1×) in each well was 50 μg/ml PHA, 5 μg/ml con A, and 5 μg/ml LPS. For negative control, 100 μl of complete RPMI media was added in triplicate, instead of the mitogens. Cells were incubated for a total of 72 hours in 37° C., 5% CO2, humidified incubator. Twenty hours before the end of the incubation, 1 μCi per well of ^3H-thymidine was added to each well. Cells were harvested using a Harvester® 96 from Tomtec. Filters were transferred into scintillation vials. Scintillation liquid, 4 ml was added to each vial. Radioactivity was counted using Beckman LS-6500 Beta counter. The results were expressed in CPM. The mean and standard deviation of triplicate samples are calculated. Results are expressed as stimulation index (SI) as follows:
[formula] • where experimental value=with mitogens (PHA, ConA and LPS) and control value=with RPMI. For each mitogen, results were compared and Student's T test was performed between the control group and the treated group. The p value was calculated for statistical significance.
The lymphoproliferative response is a widely studied function of T and B lymphocytes. Three different mitogens with different specificity for different lymphocyte subsets were used. PHA and ConA are standard mitogens that stimulate mice T cells and LPS is a mitogen which stimulates B cells. Results are expressed in proliferation capacity (Table 10 and FIGS. 5 and 6). […] This potential may present some therapeutic application against some immune dysfunctions where the lymphoproliferative response is impaired (e.g., viral infections).

[1] = 30 days on CPDS diet vs normal diet
[2] = 30 days on CPDS diet, Mean ± S.D.
[3] = Group 6, 6 days on CPDS diet, Mean ± S.D.

Compound: O=C(O)c1ccc(SSc2ccc(C(=O)O)cn2)nc1 [CPDS, 6,6′-dithiodinicotinic acid]
- Total Lymphocyte Counts, variation (splenocytes; Group 2, 30 days on CPDS diet vs group 1 (normal diet)): −15.58%
- Total Lymphocyte Counts (splenocytes; Group 2, 30 days on CPDS diet, group Mean): 5.01 × 10^7
- Total Lymphocyte Counts (splenocytes; Group 2, 30 days on CPDS diet, individual mice): 3.94 × 10^7 and 5.18 × 10^7 and 6.03 × 10^7 and 4.47 × 10^7 and 5.54 × 10^7 and 5.91 × 10^7 and 4.77 × 10^7 and 4.25 × 10^7
- Total Lymphocyte Counts, variation (splenocytes; Group 6, 6 days on CPDS diet vs group 5 (normal diet)): −30.97%
- Total Lymphocyte Counts (splenocytes; Group 6, 6 days on CPDS diet, group Mean): 4.16 × 10^7
- Total Lymphocyte Counts (splenocytes; Group 6, 6 days on CPDS diet, individual mice): 3.08 × 10^7 and 4.58 × 10^7
- Necrosis or loss of splenocyte viability (splenocytes; after 6 and 30 days CPDS diet): No signs of necrosis or loss of splenocyte viability were observed
- Mitogenic Proliferation (SI), LPS, effect of CPDS diet (lymphocytes; 6 days, n=3): No effect
- Mitogenic Proliferation (SI), PHA, effect of CPDS diet (lymphocytes; 6 days, n=3): No effect
- Mitogenic Proliferation, LPS (lymphocytes; 30 days on CPDS diet (samples G2-1 to G2-8), individual mice, 5 μg/ml LPS): 3799.3 and 1426.0 and 4760.0 and 4304.7 and 842.0 and 1407.3 and 2438.0 and 2039.3
- Mitogenic Proliferation, CON A (lymphocytes; 30 days on CPDS diet (samples G2-1 to G2-8), individual mice, 5 μg/ml con A): 6928.7 and 2621.3 and 11240.7 and 8041.3 and 915.3 and 1023.3 and 3308.7 and 4993.3
- Mitogenic Proliferation, PHA (lymphocytes; 30 days on CPDS diet (samples G2-1 to G2-8), individual mice, 50 μg/ml PHA): 3565.3 and 1168.0 and 2175.3 and 2300.0 and 603.3 and 717.3 and 1652.6 and 886.0
- Mitogenic Proliferation, No stimulation (lymphocytes; 30 days on CPDS diet (samples G2-1 to G2-8), individual mice, no unit in table, method: CPM): 78.0 and 69.3 and 66.7 and 82.0 and 57.3 and 72.7 and 72.0 and 58.7
- Mitogenic Proliferation, CON A, Variation(%) (lymphocytes; [1]): 210.2%
- Mitogenic Proliferation, LPS, Variation(%) (lymphocytes; [1]): 82.0%
- Mitogenic Proliferation, No stimulation, Variation(%) (lymphocytes; [1]): 0.2%
- Mitogenic Proliferation, PHA, Variation(%) (lymphocytes; [1]): 144.4%
- Mitogenic Proliferation, CON A (lymphocytes; [2]): 4984.1 ± 3641
- Mitogenic Proliferation, LPS (lymphocytes; [2]): 2627.1 ± 1475
- Mitogenic Proliferation, No stimulation (lymphocytes; [2]): 69.6 ± 8
- Mitogenic Proliferation, PHA (lymphocytes; [2]): 1633.4 ± 1010
- Mitogenic Proliferation (SI), LPS, effect of CPDS diet (lymphocytes; 30 days, n=8, arrow image = increase): tendency to increase
- Mitogenic Proliferation, CON A (lymphocytes; [3]): 4441.8 ± 1733
- Mitogenic Proliferation, LPS (lymphocytes; [3]): 937.9 ± 232
- Mitogenic Proliferation, No stimulation (lymphocytes; [3]): 50.5 ± 23
- Mitogenic Proliferation, PHA (lymphocytes; [3]): 205.3 ± 74
- Mitogenic Proliferation, LPS (lymphocytes; Group 6, 6 days on CPDS diet, individual mice, 5 μg/ml LPS, no unit in table, method: CPM): 1052.0 and 670.0 and 1091.3
- Mitogenic Proliferation, CON A (lymphocytes; Group 6, 6 days on CPDS diet, individual mice, 5 μg/ml con A, no unit in table, method: CPM): 4876.7 and 2532.0 and 5916.7
- Mitogenic Proliferation, PHA (lymphocytes; Group 6, 6 days on CPDS diet, individual mice, 50 μg/ml PHA, no unit in table, method: CPM): 237.3 and 120.0 and 258.7
- Mitogenic Proliferation, No stimulation (lymphocytes; Group 6, 6 days on CPDS diet, individual mice, no unit in table, method: CPM): 78.0 and 34.7 and 38.7
- Proliferation with all three mitogens (PHA, ConA, LPS), in words (lymphocytes; after 6 days of treatment with CPDS): tendency towards an increase
